Patent publication US12421230B2, “Tricyclic heteroaryl compounds useful as IRAK4 inhibitors” (BRISTOL-MYERS SQUIBB COMPANY, priority 2020, dated 2025)
Structures can show the parent of a compound that is named as a salt.

Columns and labels:
Human whole blood = assay: IRAK4 Whole Blood Assay; assay type: cell-based; conditions: stimulated with TLR2 agonist lipoteichoic acid 10 μg/mL for 5 hours, IL-6 levels
Protocol: Human whole blood containing the anti-coagulant ACD-A was plated in 384-well plate (25 μL/well) and incubated with compounds for 60 minutes at 37° C. in a 5% CO2 incubator. The blood was stimulated with a TLR2 agonist, 10 μg/mL final concentration of lipoteichoic acid (Invivogen, San Diego, CA) in 25 μL RPMI (Gibco) for 5 hours in a 5% CO2 incubator. At the end of the incubation, plates were centrifuged at 2300 rpm for 5 minutes. Supernatants were harvested and analyzed for IL-6 levels by Flow Cytometry beads assay (BD Biosciences, San Jose, CA).

IRAK4 = target: T1, IRAK4 (Homo sapiens, UniProt Q9NWZ3); assay: IRAK4 Inhibition Assay; assay type: biochemical; conditions: ATP 500 μM; fluoresceinated peptide 1.5 μM; IRAK4 0.6 nM; 60 min room temperature; Caliper LABCHIP
T1 sequence (Q9NWZ3 1-460): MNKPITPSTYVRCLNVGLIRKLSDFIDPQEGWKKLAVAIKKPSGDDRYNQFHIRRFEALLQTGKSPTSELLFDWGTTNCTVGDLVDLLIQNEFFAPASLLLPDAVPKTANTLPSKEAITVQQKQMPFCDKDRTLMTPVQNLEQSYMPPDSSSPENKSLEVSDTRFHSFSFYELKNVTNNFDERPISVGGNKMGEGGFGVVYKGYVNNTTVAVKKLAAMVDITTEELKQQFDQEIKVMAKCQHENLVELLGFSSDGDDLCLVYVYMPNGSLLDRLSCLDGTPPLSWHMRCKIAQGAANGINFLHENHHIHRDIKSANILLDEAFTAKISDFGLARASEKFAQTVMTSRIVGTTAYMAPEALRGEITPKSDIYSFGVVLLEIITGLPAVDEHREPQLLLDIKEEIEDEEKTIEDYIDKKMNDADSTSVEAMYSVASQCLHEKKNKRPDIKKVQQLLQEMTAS
Protocol: The assays were performed in U-bottom 384-well plates. The final assay volume was 30 μL prepared from 15 μL additions of enzyme and substrates (fluoresceinated peptide and ATP) and test compounds in assay buffer (20 mM HEPES pH 7.2, 10 mM MgCl2, 0.015% Brij 35 and 4 mM DTT). The reaction was initiated by the combination of IRAK4 with substrates and test compounds. The reaction mixture was incubated at room temperature for 60 min. and terminated by adding 45 μL of 35 mM EDTA to each sample. The reaction mixture was analyzed on the Caliper LABCHIP® 3000 (Caliper, Hopkinton, MA) by electrophoretic separation of the fluorescent substrate and phosphorylated product. Inhibition data were calculated by comparison to no enzyme control reactions for 100% inhibition and vehicle-only reactions for 0% inhibition. The final concentrations of reagents in the assays are ATP, 500 μM; FL-IPTSPITTTYFFFKKK peptide 1.5 μM; IRAK4, 0.6 nM; and DMSO, 1.6%.

| Compound | EC50 (Human whole blood) | IC50 (IRAK4) |
| --- | --- | --- |
| CC(C)Nc1c(C(=O)NC[C@@H](F)C(C)(C)O)cnc2c1[nH]c1cc(C#N)ccc12 [Example 1, (R)-7-cyano-N-(2-fluoro-3-hydroxy-3-methylbutyl)-4-(isopropylamino)-5H-pyrido [3,2-b]indole-3-carboxamide] | 430 nM | 2 nM |
| CC(C)(O)[C@H](F)CNC(=O)c1cnc2c([nH]c3cc(C#N)ccc32)c1NC1CC(F)(F)C1 [Example 3, (R)-7-cyano-4-((3,3-difluorocyclobutyl)amino)-N-(2-fluoro-3-hydroxy-3-methylbutyl)-5H-pyrido[3,2-b]indole-3-carboxamide] | 2470 nM | 19 nM |
| CC(C)(O)[C@H](F)CNC(=O)c1cnc2c([nH]c3cc(C#N)ccc32)c1NC1CCC1 [Example 4, (R)-7-cyano-4-(cyclobutylamino)-N-(2-fluoro-3-hydroxy-3-methylbutyl)-5H-pyrido[3,2-b]indole-3-carboxamide] | 1990 nM | 2 nM |
| CC(C)Nc1c(C(=O)NCCC(C)(C)O)cnc2c1[nH]c1cc(C#N)ccc12 [Example 5, 7-cyano-N-(3-hydroxy-3-methylbutyl)-4-(isopropylamino)-5H-pyrido[3,2-b]indole-3-carboxamide] | 1440 nM | 3.8 nM |
| CC(C)Nc1c(C(=O)N[C@H]2CC[C@H](O)CC2)cnc2c1[nH]c1cc(C#N)ccc12 [Example 10, 7-cyano-N-((1R,4R)-4-hydroxycyclohexyl)-4-(isopropylamino)-5H-pyrido[3,2-b]indole-3-carboxamide] | 2890 nM | 12 nM |
| CC(C)Nc1c(C(=O)N[C@H]2CC[C@H](N)CC2)cnc2c1[nH]c1cc(C#N)ccc12 [Example 12, N-((1R,4R)-4-aminocyclohexyl)-7-cyano-4-(isopropylamino)-5H-pyrido[3,2-b]indole-3-carboxamide] | 2720 nM | 8.6 nM |
| N#Cc1ccc2c(c1)[nH]c1c(NC3CC3)c(C(=O)N[C@H]3C[C@H](O)C3)cnc12 [Example 45, 7-cyano (cyclopropylamino)-N-((1R,3R)-3-hydroxycyclobutyl)-5H-pyrido[3,2-b]indole carboxamide] |  | 33 nM |
| CC(C)Nc1c(C(=O)N[C@H]2C[C@H](N)C2)cnc2c1[nH]c1cc(C#N)ccc12 [Example 47, N-((1R,3R)-3-aminocyclobutyl)-7-cyano (isopropylamino)-5H-pyrido[3,2-b]indole-3-carboxamide] |  | 40 nM |
| CC(=O)N[C@H]1C[C@H](NC(=O)c2cnc3c([nH]c4cc(C#N)ccc43)c2NC(C)C)C1 [Example 49, N-((1R,3R)-3-acetamidocyclobutyl)-7-cyano-4-(isopropylamino)-5H-pyrido[3,2-b]indole-3-carboxamide] |  | 22 nM |
| CC(C)Nc1c(C(=O)NCCC(C)(C)N)cnc2c1[nH]c1cc(C#N)ccc12 [Example 52, N-(3-amino-3-methylbutyl)-7-cyano-4-(isopropylamino)-5H-pyrido[3,2-b]indole-3-carboxamide] |  | 3.3 nM |
| COc1ccc(CNc2c(C(=O)NCCC(C)(C)O)cnc3c2[nH]c2cc(C#N)ccc23)cc1OC [Example 56, 7-cyano-4-((3,4-dimethoxybenzyl)amino)-N-(3-hydroxy-3-methylbutyl)-5H-pyrido[3,2-b]indole-3-carboxamide] |  | 510 nM |
| CC(C)(O)[C@H](F)CNC(=O)c1cnc2c([nH]c3cc(C#N)ccc32)c1NC1CCN(S(C)(=O)=O)CC1 [Example 64, (R)-7-cyano-N-(2-fluoro-3-hydroxy-3-methylbutyl)-4-((1-(methylsulfonyl)piperidin-4-yl)amino)-5H-pyrido[3,2-b]indole-3-carboxamide] |  | 53 nM |
| CC(C)Nc1c(C(=O)NC[C@@H](F)C(C)(C)O)cnc2c1[nH]c1cc(-c3ccc(=O)[nH]c3)ccc12 [Example 68, (R)—N-(2-fluoro-3-hydroxymethylbutyl)-4-(isopropylamino)-7-(6-oxo-1,6-dihydropyridin-3-yl)-5H-pyrido[3,2-b]indole-3-carboxamide] |  | 580 nM |
| CC(C)Cc1nc(-c2cnc3c([nH]c4cc(C#N)ccc43)c2NC(C)C)n[nH]1 [Example 70, 3-(5-isobutyl-1H-1,2,4-triazol-3-yl)-4-(isopropylamino)-5H-pyrido[3,2-b]indole-7-carbonitrile, TFA] |  | 1700 nM |
| CCCc1nc(-c2cnc3c([nH]c4cc(C#N)ccc43)c2NC(C)C)n[nH]1 [Example 71, 4-(isopropylamino)-3-(5-propyl-1H-1,2,4-triazol-3-yl)-5H-pyrido[3,2-b]indole carbonitrile] |  | 500 nM |
| CCCc1noc(-c2cnc3c([nH]c4cc(C#N)ccc43)c2NC(C)C)n1 [Example 72, 4-(isopropylamino)-3-(3-propyl-1,2,4-oxadiazol-5-yl)-5H-pyrido[3,2-b]indole-7-carbonitrile] |  | 360 nM |
| CC(C)Nc1c(-c2cc(C3CNCCO3)no2)cnc2c1[nH]c1cc(C#N)ccc12 (stereo not drawn) [Example 78, 4-(isopropylamino)-3-(3-(morpholin-2-yl)isoxazol-5-yl)-5H-pyrido[3,2-b]indole-7-carbonitrile] |  | 26 nM |
| CC(C)Nc1c(-c2cc(C3CCCNC3)no2)cnc2c1[nH]c1cc(C#N)ccc12 (stereo not drawn) [Example 79, 4-(isopropylamino)-3-(3-(piperidin-3-yl)isoxazol-5-yl)-5H-pyrido[3,2-b]indole-7-carbonitrile] |  | 22 nM |

The remaining molecules from weak to strong by IC50 (IRAK4), led by results:

| EC50 (Human whole blood) | IC50 (IRAK4) | Compound |
| --- | --- | --- |
|  | 650 nM | CC(C)Nc1c(C(=O)NCCC2CC2)cnc2[nH]c3ccc(C#N)cc3c12 [Example 82, 6-cyano-N-(2-cyclopropylethyl)-4-(isopropylamino)-9H-pyrido[2,3-b]indole-3-carboxamide] |
|  | 540 nM | CC(C)Nc1c(C(=O)NC[C@@H](F)C(C)(C)O)cnc2c1[nH]c1cc(C#N)cnc12 [Example 69, (R)-7-cyano-N-(2-fluoro-3-hydroxy-3-methylbutyl)-4-(isopropylamino)-5H-pyrrolo [3,2-b:4,5-b′]dipyridine-3-carboxamide] |
|  | 240 nM | CC(C)Nc1c(C(=O)NCCC(C)(C)O)cnc2c1[nH]c1cc(C(N)=O)ccc12 [Example 48, N3-(3-hydroxy-3-methylbutyl)-4-(isopropylamino)-5H-pyrido[3,2-b]indole-3,7-dicarboxamide] |
|  | 170 nM | CC(C)Nc1c(C(=O)NC[C@@H](F)C(C)(C)O)cnc2[nH]c3ccc(C#N)cc3c12 [Example 81, (R)-6-cyano-N-(2-fluoro-3-hydroxy-3-methylbutyl)-4-(isopropylamino)-9H-pyrido [2,3-b]indole-3-carboxamide] |
|  | 100 nM | CC(C)Nc1c(C(=O)NCCc2nnn[nH]2)cnc2c1[nH]c1cc(C#N)ccc12 [Example 65, N-(2-(1H-tetrazol-5-yl)ethyl)-7-cyano-4-(isopropylamino)-5H-pyrido[3,2-b]indole-3-carboxamide] |
|  | 33 nM | COC(=O)N[C@H]1C[C@H](NC(=O)c2cnc3c([nH]c4cc(C#N)ccc43)c2NC(C)C)C1 [Example 50, methyl ((1R,3R)-3-(7-cyano-4-(isopropylamino)-5H-pyrido[3,2-b]indole-3-carboxamido)cyclobutyl)carbamate] |
|  | 30 nM | CC(C)Nc1c(C(=O)NC[C@@H](F)C(C)(C)O)cnc2c1[nH]c1cc(-c3cn[nH]c3)ccc12 [Example 67, (R)—N-(2-fluoro-3-hydroxy-3-methylbutyl)-4-(isopropylamino)-7-(1H-pyrazol-4-yl)-5H-pyrido[3,2-b]indole-3-carboxamide] |
|  | 24 nM | CCNc1c(C(=O)NCCC2CCCCN2)cnc2c1[nH]c1cc(C#N)ccc12 (stereo not drawn) [Example 58, 7-cyano-4-(ethylamino)-N-(2-(piperidin-2-yl)ethyl)-5H-pyrido[3,2-b]indole-3-carboxamide] |
|  | 2.8 nM | CCNc1c(C(=O)NCCC2CCCNC2)cnc2c1[nH]c1cc(C#N)ccc12 (stereo not drawn) [Example 55, 7-cyano-4-(ethylamino)-N-(2-(piperidin-3-yl)ethyl)-5H-pyrido[3,2-b]indole-3-carboxamide] |
| 1300 nM | 1.6 nM | CCNc1c(C(=O)NC[C@@H](F)C(C)(C)O)cnc2c1[nH]c1cc(C#N)ccc12 [Example 2, (R)-7-cyano-4-(ethylamino)-N-(2-fluoro-3-hydroxy-3-methylbutyl)-5H-pyrido[3,2-b]indole-3-carboxamide] |
|  | 1.5 nM | CC(C)CCn1cc(-c2cnc3c([nH]c4cc(C#N)ccc43)c2NC(C)C)nn1 [Example 73, 3-(1-isopentyl-1H-1,2,3-triazol-4-yl)-4-(isopropylamino)-5H-pyrido[3,2-b]indole-7-carbonitrile] |
